# Laboratory results published in patent US7754696B2 (Pharmaceutical Solutions, Inc., priority 2001, dated 2010).
# Key:
# [1] = system: foul mites; assay: Treatment of a poultry flock via drinking water, mites; format: in vivo; conditions: 10000 head flock, 5 percent concentration mixture in water, administered over 12 hours, 180 ug per kg
# Method: (§1) 400 cc of a 5 percent concentration mixture was added to 5 gallons of water to form a stock solution that was administered over 12 hours at a dose of 180 ug per kg.
# [2] = cited from earlier work
# [3] = cited from earlier work; remark: listed apart in the source
# [4] = system: round worms; assay: Treatment of swine via drinking water, fecal examinations pre and post treatment; format: in vivo; conditions: 1000 100-pound pigs, 5 percent solution in 10 gallons of water stock solution
# Method: This is 20 mg per 100 pounds or 200 ug per pound.
# [5] = room temperature; cited from earlier work
# [6] = system: round worms; assay: Treatment of a poultry flock via drinking water, round worms; format: in vivo; conditions: 10000 head flock, 5 percent concentration mixture in water, administered over 12 hours, 180 ug per kg
# Method: as §1
smiles,measurement,setting,value
"CC[C@H](C)[C@H]1O[C@]2(CC[C@@H]1C)C[C@@H]1C[C@@H](C/C=C(\C)C(O[C@H]3C[C@H](OC)[C@@H](O[C@H]4C[C@H](OC)[C@@H](O)[C@H](C)O4)[C@H](C)O3)[C@@H](C)/C=C/C=C3\CO[C@@H]4[C@H](O)C(C)=C[C@@H](C(=O)O1)[C@]34O)O2 (stereo partly drawn) [Ivermectin, 22,23 dihydroavermectin Bla]",elimination of mites from the birds,[1],100%
same,bound to plasma proteins,[2],about 93%
same,apparent volume of distribution,[3]; adults,about 47 liters
same,systemic clearance,[3]; adults,about 1.2 liters/hour
same,terminal half-life,[3]; adults,about 27 hours
same,time to peak levels in plasma,"[3]; human beings, oral administration",≤ 4 h
same,reduction in round worms based on fecal examinations,[4],98%
same,solubility in water,[5],about 0.005 mg per ml
same,elimination of worms from the birds,[6],100%
